In US20260207711A1, “FORMULATIONS, DEVICES AND METHODS FOR A GLP-1 AGONIST” (Nano Precision Medical, Inc., priority 2023, published 2026):

Experiment: Stability of the formulation remaining in terminated devices (purity, remaining concentration, mass balance by HPLC)
Type: physicochemical
Details: over 77 days; starting purity of semaglutide as received 94%
From the text: Each trace in the figure represents a separate measurement of a separate vial. At the end of the time period devices were terminated, disassembled and the internal compositions measured.
The mass balance numbers indicate that no appreciable amount of drug was lost in the form of degradants undetectable by HPLC, such a fibrils.
[…] Purities were […].

semaglutide
total loss in purity: 7-8%
